16 compounds from PubChem BioAssay (NCI) can be followed below.

Holding throughout (assay): NCI anticancer screen, dose series, 48 h
Test [1] has as its system A549 NSCLC.
For test [2], the system named is BT-549 breast.
Test [3] relates to COLO 205 colon.
Test [4] relates to HCC-2998 colon.
Test [5] has as its system HCT-15 colon.
The test system of test [6] is HOP-62 NSCLC.
Test [7] has as its system HS 578T breast.
For test [8], the system named is HT29 colon.
Test [9] has as its system IGROV1 ovarian.
Test [10] concerns MCF7 breast.
Test [11] deals with NCI-H226 lung.
Test [12] concerns SN12C renal.
The subject of test [13] is SNB-19 CNS.
Test [14] deals with SR leukemia.
Test [15] has as its system SW-620 colon.
Test [16] concerns UACC-257 melanoma.
Test [17] has as its system UO-31 renal.
Test [18] has as its system HL-60(TB) leukemia.

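A five-concentration, 48-hour dose response in 96-well plates underlies each endpoint, interpolated linearly between surrounding concentrations. TGI: concentration producing complete growth inhibition.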 Bounds are passed on as bounds.

Regarding `CCC/C(Cl)=N\OC(=O)Nc1cccc(C(F)(F)F)c1`, the TGI is 36.1 µM in test [1]; 24.7 µM in test [2]; 8.51 µM in test [3]; 33.4 µM in test [4]; 18.4 µM in [5]; greater than 100 µM in test [6]. Besides, the TGI amounted to 70.2 µM in test [7]; 50.3 µM in test [8]; 32.4 µM in test [9]; 30.1 µM in [10]; 37.8 µM in test [11]; 29.7 µM in [12]. In addition, the TGI is greater than 100 µM in [13]; 5.93 µM in [14]; 8.66 µM in [15]; 31.6 µM in test [16]; 33.9 µM in [17].
As to `C=CCc1cc(C=C(C#N)C#N)cc(OC)c1O`, the TGI is greater than 100 µM in test [1]; greater than 100 µM in test [2]; greater than 100 µM in test [3]; greater than 100 µM in test [5]; 89.1 µM in test [18]; greater than 100 µM in test [7]. Also, the TGI in test [8], in [9], in [10], in test [11], in test [13] and in test [14] was greater than 100 µM each time. Also, the TGI in [15], in test [16] and in test [17] was greater than 100 µM in each case.
With `CCN1C(=O)/C(=C2\SC(c3ccccc3)(c3ccccc3)c3ccccc32)SC1=S`, the TGI was greater than 100 µM in test [1]; greater than 100 µM in test [2]; greater than 100 µM in test [3]; greater than 100 µM in [4]; greater than 100 µM in [5]; 68.1 µM in test [6]. Moreover, the TGI in test [7], in test [8], in test [9], in test [10], in test [11] and in test [12] was greater than 100 µM throughout. Further, the TGI in test [13] is greater than 100 µM; in [14] it was 42.9 µM; in [16], greater than 100 µM; in test [17], greater than 100 µM.
As to `CSc1cc(Br)ccc1-n1c(C(=O)c2ccccc2)c(SC)n(-c2ccccc2)c1=O`, the TGI in test [1], in test [2], in test [3], in test [4], in test [5] and in [6] was greater than 100 µM each time. Moreover, the TGI in test [7], in test [8], in [9], in test [10], in test [11] and in [12] was greater than 100 µM throughout. The TGI in test [13], in test [14], in test [15], in test [16] and in test [17] was greater than 100 µM in each case.
`COc1cccc2c3ccccc3c3nc[nH]c3c12`: the TGI in [1] is greater than 100 µM; in test [2], greater than 100 µM; in [3] it was 36.1 µM; in [4], greater than 55.6 µM; in test [5], 97.1 µM; in test [6], greater than 100 µM. For the same compound, the TGI in test [7] is 3.75 µM; in test [8], greater than 100 µM; in test [9], greater than 100 µM; in [10] it was greater than 100 µM; in [11], greater than 95 µM; in test [12] it was greater than 100 µM. In addition, the TGI in test [13] was greater than 100 µM; in [14], 46.6 µM; in [15], greater than 71.2 µM; in test [16], greater than 63.8 µM; in test [17], greater than 100 µM.
Regarding `COc1cc(C(=O)C2C(=O)c3ccccc3C2C2(O)c3ccccc3CC2C(O)c2cc(OC)c(OC)c(OC)c2)cc(OC)c1OC` (configuration not stated), the TGI in test [1], in test [2], in [3], in test [4], in [5] and in test [6] was greater than 100 µM each time. Moreover, the TGI in [7], in test [8], in test [9], in test [10], in test [11] and in test [12] was greater than 100 µM throughout. For the same compound, the TGI in test [13], in test [14], in [15], in [16] and in [17] was greater than 100 µM in each case.
Consider `CCOC(=O)C(=[N+]=[N-])C(=O)CN1C(=O)C2CC(C)=C(C)CC2C1O` (configuration not stated), for which the TGI in [1], in test [2], in test [3], in test [4], in test [18] and in test [6] was greater than 100 µM in each case. Also, the TGI in test [7], in [8], in [9], in test [10], in test [11] and in [13] was greater than 100 µM throughout. In addition, the TGI in test [14], in test [15], in test [16] and in test [17] was greater than 100 µM in each case.
Take `CCOC(=O)/C(N=Nc1ccc(-n2c(C)nc3ccc(Br)cc3c2=O)cc1)=C(/C)O`: the TGI in test [1], in [2], in test [3], in [5], in test [18] and in test [6] was greater than 100 µM each time. The TGI in test [7] was 70.7 µM; in test [8] it was greater than 100 µM; in test [9], greater than 100 µM; in test [10] it was greater than 100 µM; in test [11] it was greater than 100 µM; in [12], greater than 100 µM. Also, the TGI in [13], in test [14], in test [15], in test [16] and in test [17] was greater than 100 µM throughout.
As to `OC(c1cc2ccccc2[nH]1)C1(c2cccnc2)SCCCS1` (configuration not stated), the TGI in test [1], in [2], in test [3], in [5], in [18] and in [6] was greater than 100 µM in each case. The TGI in test [7], in [8], in test [9], in test [10], in [11] and in test [12] was greater than 100 µM each time. In addition, the TGI in test [13], in test [14], in test [15], in test [16] and in [17] was greater than 100 µM in each case.
Turning to `O=C(NNC(=S)Nc1ccc(Br)cc1)c1cc(-c2ccccc2)nc2ccccc12`, the TGI stood at 58 µM in test [1]; 60.9 µM in [2]; 53 µM in [3]; 30.8 µM in [4]; 66.9 µM in test [5]; 42 µM in test [6]. In addition, the TGI in test [7] is 94.2 µM; in [8] it was 82.4 µM; in test [9], greater than 100 µM; in test [10], 47.1 µM; in test [11] it was 73.7 µM; in test [12], 37.1 µM. Further, the TGI in test [13] was greater than 100 µM; in test [14] it was 40.6 µM; in [15], 46.9 µM; in test [16], 61.4 µM; in test [17], 36.4 µM.
Turning to `COC1=CC(=O)c2c(cc(COP(=O)(OCC3OC(n4cc(F)c(=O)[nH]c4=O)CC3O)N(C)CCCCCl)n2C)C1=O` (configuration not stated), the TGI is 6.27 µM in test [1]; greater than 100 µM in test [2]; greater than 39.8 µM in test [3]; greater than 86.4 µM in test [5]; 16 µM in test [18]; 26.8 µM in [6]. Further, the TGI was 2.64 µM in test [7]; greater than 40.7 µM in [8]; 23.7 µM in test [9]; 1.84 µM in [10]; 47.1 µM in test [11]; 1.84 µM in [12]. Further, the TGI in test [13] was greater than 70.5 µM; in test [14], greater than 92.7 µM; in [15] it was greater than 59.9 µM; in [16], greater than 47.5 µM; in [17], greater than 69.3 µM.
Turning to `Cc1ccc(C2SCC(=O)N2c2ccc(-c3ccc(-n4c(-c5ccccc5)nc5ccccc5c4=O)cc3)cc2)cc1` (configuration not stated), the TGI in test [1], in [2], in test [3], in test [4], in test [5] and in [18] was greater than 100 µM each time. For the same compound, the TGI in test [6], in test [7], in test [8], in test [9], in test [10] and in test [12] was greater than 100 µM in each case. Further, the TGI in test [13], in test [14], in [15], in [16] and in [17] was greater than 100 µM each time.
For the compound `O=C(COc1ccc(OCC(=O)NNC2=NC(c3cc(F)c(Cl)cc3Cl)CS2)c(Cl)c1)NNC1=NC(c2cc(F)c(Cl)cc2Cl)CS1` (configuration not stated), the TGI in [1] is 28.6 µM; in [2], 66.1 µM; in [3], greater than 100 µM; in test [5], 36 µM; in test [18], greater than 100 µM; in test [6], greater than 100 µM. The TGI was 48.7 µM in test [7]; 59.3 µM in test [8]; greater than 100 µM in [9]; 34.6 µM in test [10]; 46 µM in [11]; 43.8 µM in [12]. Besides, the TGI in test [13], in test [14], in [15], in test [16] and in test [17] was greater than 100 µM each time.
In the case of `COC(=O)c1c2c(cc3c1CC1(C3)Cc3cc4c(c(C(C)=O)c3C1)CCC4)C=CC2` (configuration not stated), the TGI in [1], in [2], in test [3], in test [5], in test [18] and in test [6] was greater than 31.6 µM each time. In addition, the TGI in [7], in test [8], in [9], in test [10], in [11] and in test [12] was greater than 31.6 µM throughout. The TGI in [13], in test [14], in test [16] and in [17] was greater than 31.6 µM each time.
For the compound `COC(=O)C(C(=O)C(=O)Nc1ccccc1C#N)c1nc2ccc([N+](=O)[O-])cc2[nH]c1=O` (configuration not stated), the TGI in test [1], in test [2], in [3], in test [4], in test [5] and in [6] was greater than 100 µM in each case. Moreover, the TGI in [7], in test [8], in test [9], in test [10], in test [11] and in [12] was greater than 100 µM in each case. Moreover, the TGI in test [13], in test [14], in test [15], in [16] and in test [17] was greater than 100 µM in each case.
In the case of `COC(=O)C(Cc1ccccc1)NP(=O)(O)OCC1OC(n2cc(I)c(=O)[nH]c2=O)CC1O` (configuration not stated), the TGI in test [1], in test [2], in [3], in test [5], in [18] and in test [6] was greater than 100 µM in each case. Besides, the TGI in test [7], in [8], in test [9], in test [10], in test [11] and in test [12] was greater than 100 µM each time. Moreover, the TGI in test [13], in test [14], in [15], in test [16] and in test [17] was greater than 100 µM each time.
